According to ChEMBL document CHEMBL4266023, “NMR-Based Investigation of Hydrogen Bonding in a Dihydroanthracen-1(4 H)one from Rubia philippinensis and Its Soluble Epoxide Hydrolase Inhibitory Potential” (J Nat Prod, 2018):

Target: T1, Bifunctional epoxide hydrolase 2 (Homo sapiens, UniProt P34913)
T1 sequence (P34913 whole entry): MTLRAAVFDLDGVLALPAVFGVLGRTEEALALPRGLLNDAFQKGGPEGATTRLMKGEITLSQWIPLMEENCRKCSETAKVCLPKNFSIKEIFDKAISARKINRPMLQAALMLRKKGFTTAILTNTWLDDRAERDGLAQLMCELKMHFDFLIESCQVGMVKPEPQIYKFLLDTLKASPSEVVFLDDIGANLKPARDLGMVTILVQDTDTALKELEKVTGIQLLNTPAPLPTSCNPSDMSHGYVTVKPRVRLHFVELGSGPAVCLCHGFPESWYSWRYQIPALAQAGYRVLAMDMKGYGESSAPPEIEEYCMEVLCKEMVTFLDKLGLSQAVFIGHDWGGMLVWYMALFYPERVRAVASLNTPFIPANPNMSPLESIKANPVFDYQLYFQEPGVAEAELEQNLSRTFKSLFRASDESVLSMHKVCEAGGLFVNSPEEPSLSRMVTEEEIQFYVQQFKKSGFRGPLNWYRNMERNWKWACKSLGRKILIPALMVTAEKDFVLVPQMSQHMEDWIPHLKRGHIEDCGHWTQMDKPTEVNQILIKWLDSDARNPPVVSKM
Experiment: Inhibition of soluble epoxide hydrolase (unknown origin) using NEPC as substrate after 1 hr by fluorescence assay

| IC50 [nM] | SMILES |
| --- | --- |
| 300 | Cc1ccc2c(O[C@@H]3O[C@H](CO)[C@@H](O)[C@H](O)[C@H]3O)c3ccccc3c(O[C@@H]3O[C@H](CO)[C@@H](O)[C@H](O)[C@H]3O)c2c1 |
| 1100 | CC1=CC[C@@H]2C(=C(O)c3ccccc3[C@@H]2O)C1=O |
